Test results taken from PubChem BioAssay (NCI).
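The compound was tested at five concentrations on cells cultured in 96-well plates, with a 48-hour exposure period. TGI: total growth inhibition.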

Key:
Test in all cases: NCI-60 cell line screen, 48 h
786-0 renal = test system: 786-0 renal
A498 renal = test system: A498 renal
A549 NSCLC = test system: A549 NSCLC
ACHN renal = test system: ACHN renal
BT-549 breast = test system: BT-549 breast
CAKI-1 renal = test system: CAKI-1 renal
CCRF-CEM leukemia = test system: CCRF-CEM leukemia
COLO 205 colon = test system: COLO 205 colon
DU-145 prostate = test system: DU-145 prostate
EKVX NSCLC = test system: EKVX NSCLC
HCC-2998 colon = test system: HCC-2998 colon
HCT-116 colon = test system: HCT-116 colon
HCT-15 colon = test system: HCT-15 colon
HL-60(TB) leukemia = test system: HL-60(TB) leukemia
HOP-62 NSCLC = test system: HOP-62 NSCLC
HOP-92 NSCLC = test system: HOP-92 NSCLC
HS 578T breast = test system: HS 578T breast
HT29 colon = test system: HT29 colon
IGROV1 ovarian = test system: IGROV1 ovarian
K-562 leukemia = test system: K-562 leukemia
KM12 colon = test system: KM12 colon
LOX IMVI melanoma = test system: LOX IMVI melanoma
M14 melanoma = test system: M14 melanoma
MALME-3M melanoma = test system: MALME-3M melanoma
MCF7 breast = test system: MCF7 breast
MDA-MB-231 breast = test system: MDA-MB-231 breast
MDA-MB-435 = test system: MDA-MB-435
MDA-N = test system: MDA-N
MOLT-4 leukemia = test system: MOLT-4 leukemia
NCI-H23 lung = test system: NCI-H23 lung
NCI-H460 lung = test system: NCI-H460 lung
NCI-H522 lung = test system: NCI-H522 lung
NCI/ADR-RES ovarian = test system: NCI/ADR-RES ovarian
OVCAR-3 ovarian = test system: OVCAR-3 ovarian
OVCAR-4 ovarian = test system: OVCAR-4 ovarian
OVCAR-5 ovarian = test system: OVCAR-5 ovarian
OVCAR-8 ovarian = test system: OVCAR-8 ovarian
PC-3 prostate = test system: PC-3 prostate
RPMI-8226 leukemia = test system: RPMI-8226 leukemia
RXF 393 renal = test system: RXF 393 renal
SF-268 CNS = test system: SF-268 CNS
SF-295 CNS = test system: SF-295 CNS
SF-539 CNS = test system: SF-539 CNS
SK-MEL-2 melanoma = test system: SK-MEL-2 melanoma
SK-MEL-5 melanoma = test system: SK-MEL-5 melanoma
SK-OV-3 ovarian = test system: SK-OV-3 ovarian
SN12C renal = test system: SN12C renal
SNB-19 CNS = test system: SNB-19 CNS
SR leukemia = test system: SR leukemia
SW-620 colon = test system: SW-620 colon
T-47D breast = test system: T-47D breast
TK-10 renal = test system: TK-10 renal
U251 CNS = test system: U251 CNS
UACC-257 melanoma = test system: UACC-257 melanoma
UACC-62 melanoma = test system: UACC-62 melanoma
UO-31 renal = test system: UO-31 renal
NCI-H226 lung = test system: NCI-H226 lung
SK-MEL-28 melanoma = test system: SK-MEL-28 melanoma
SNB-75 CNS = test system: SNB-75 CNS

CCOC(=O)N(C)CCC1CC=CC(=O)C1c1cccc(OC)c1OC (stereo unspecified)
TGI (786-0 renal): 45.7 µM
TGI (A498 renal): > 100 µM
TGI (A549 NSCLC): 91 µM
TGI (ACHN renal): > 100 µM
TGI (BT-549 breast): 34.3 µM
TGI (CAKI-1 renal): 91.6 µM
TGI (CCRF-CEM leukemia): 35.7 µM
TGI (COLO 205 colon): 17.8 µM
TGI (DU-145 prostate): 44.4 µM
TGI (EKVX NSCLC): 89.8 µM
TGI (HCC-2998 colon): 25.8 µM
TGI (HCT-116 colon): 27.6 µM
TGI (HCT-15 colon): 31.1 µM
TGI (HL-60(TB) leukemia): 52.5 µM
TGI (HOP-62 NSCLC): > 100 µM
TGI (HOP-92 NSCLC): > 100 µM
TGI (HS 578T breast): > 100 µM
TGI (HT29 colon): 34.1 µM
TGI (IGROV1 ovarian): > 100 µM
TGI (K-562 leukemia): > 100 µM
TGI (KM12 colon): 33.6 µM
TGI (LOX IMVI melanoma): > 100 µM
TGI (M14 melanoma): 55 µM
TGI (MALME-3M melanoma): 60.1 µM
TGI (MCF7 breast): 56.6 µM
TGI (MDA-MB-231 breast): > 100 µM
TGI (MDA-MB-435): 28.8 µM
TGI (MDA-N): 36.4 µM
TGI (MOLT-4 leukemia): 64.5 µM
TGI (NCI-H23 lung): 36.3 µM
TGI (NCI-H460 lung): 48.2 µM
TGI (NCI-H522 lung): 27.5 µM
TGI (NCI/ADR-RES ovarian): 80.1 µM
TGI (OVCAR-3 ovarian): 38.8 µM
TGI (OVCAR-4 ovarian): > 100 µM
TGI (OVCAR-5 ovarian): 46.7 µM
TGI (OVCAR-8 ovarian): > 100 µM
TGI (PC-3 prostate): > 100 µM
TGI (RPMI-8226 leukemia): 46.6 µM
TGI (RXF 393 renal): 27.5 µM
TGI (SF-268 CNS): 60 µM
TGI (SF-295 CNS): 98.8 µM
TGI (SF-539 CNS): > 100 µM
TGI (SK-MEL-2 melanoma): 35 µM
TGI (SK-MEL-5 melanoma): 22 µM
TGI (SK-OV-3 ovarian): > 100 µM
TGI (SN12C renal): 39.7 µM
TGI (SNB-19 CNS): 85.6 µM
TGI (SR leukemia): 67.1 µM
TGI (SW-620 colon): > 100 µM
TGI (T-47D breast): 77.1 µM
TGI (TK-10 renal): 65.3 µM
TGI (U251 CNS): 43 µM
TGI (UACC-257 melanoma): 39.3 µM
TGI (UACC-62 melanoma): 32.5 µM
TGI (UO-31 renal): 35.9 µM

O=c1cnn(C/C=C/CP(=O)(O)O)c(=O)[nH]1
TGI (A498 renal): > 100 µM
TGI (A549 NSCLC): > 100 µM
TGI (ACHN renal): > 100 µM
TGI (BT-549 breast): > 100 µM
TGI (CAKI-1 renal): > 100 µM
TGI (COLO 205 colon): > 100 µM
TGI (DU-145 prostate): > 100 µM
TGI (EKVX NSCLC): > 100 µM
TGI (HCC-2998 colon): > 100 µM
TGI (HCT-15 colon): > 100 µM
TGI (HL-60(TB) leukemia): > 100 µM
TGI (HOP-62 NSCLC): > 100 µM
TGI (HOP-92 NSCLC): > 100 µM
TGI (HS 578T breast): > 100 µM
TGI (IGROV1 ovarian): > 100 µM
TGI (K-562 leukemia): > 100 µM
TGI (KM12 colon): > 100 µM
TGI (LOX IMVI melanoma): > 100 µM
TGI (M14 melanoma): > 100 µM
TGI (MALME-3M melanoma): > 100 µM
TGI (MCF7 breast): > 100 µM
TGI (MDA-MB-231 breast): > 100 µM
TGI (MDA-MB-435): > 100 µM
TGI (MDA-N): > 100 µM
TGI (NCI-H226 lung): > 100 µM
TGI (NCI-H23 lung): > 100 µM
TGI (NCI-H460 lung): > 100 µM
TGI (NCI-H522 lung): > 100 µM
TGI (NCI/ADR-RES ovarian): > 100 µM
TGI (OVCAR-3 ovarian): > 100 µM
TGI (OVCAR-5 ovarian): > 100 µM
TGI (OVCAR-8 ovarian): > 100 µM
TGI (PC-3 prostate): > 100 µM
TGI (RPMI-8226 leukemia): > 100 µM
TGI (RXF 393 renal): > 100 µM
TGI (SF-268 CNS): > 100 µM
TGI (SF-539 CNS): > 100 µM
TGI (SK-MEL-2 melanoma): > 100 µM
TGI (SK-MEL-28 melanoma): > 100 µM
TGI (SK-MEL-5 melanoma): > 100 µM
TGI (SN12C renal): > 100 µM
TGI (SNB-19 CNS): > 100 µM
TGI (SNB-75 CNS): > 100 µM
TGI (SR leukemia): > 100 µM
TGI (SW-620 colon): > 100 µM
TGI (T-47D breast): > 100 µM
TGI (TK-10 renal): > 100 µM
TGI (U251 CNS): > 100 µM
TGI (UACC-257 melanoma): > 100 µM
TGI (UO-31 renal): > 100 µM
